These results are taken from patent US12390441B2, “Immunomodulating o-het/aryl azalides” (Zoetis Services LLC, priority 2020, dated 2025).

The subject of one experiment is P. multocida 46572. Put plainly: In vivo mouse lung infection challenge model (murine). Also on record: species or system CD-1 female mice. How it is done: The challenge organism was P. multocida 46572. Target challenge concentration was 5×10^2 CFU/mouse. Isolated colonies from overnight growth (37° C. with 5% CO2) on trypticase soy agar (TSA II) blood plates were transferred to room temperature Brain Heart Infusion Broth (BHIB). The broth culture was incubated 3.5-4 hours to approximately mid-log phase of growth, as measured by forward light scatter at 600 nm (OD600, 0.200). The culture was centrifuged to collect the bacterial pellet. The pellet was re-suspended in BHIB and adjusted to provide an approximate concentration of 2.7 log^10 colony forming units (CFU) in 0.04 mL at the highest concentration. The challenge inoculum concentration was confirmed by serial dilutions of the inoculum for CFU enumeration. On Day −5, CD-1 female mice were received. Mice were given standard rodent diet and water ad libitum. On Day 0, bacterial inoculum (0.04 mL) was administered to each mouse (n=36) intranasally. Compounds of the invention were dosed at 20 mg/kg (0.1 mL) in a buffered (˜pH 5.4) propylene glycol, monothioglycerol and water solution by subcutaneous injection. Animals were observed from Days 1-10. The study was terminated on Day 10. In addition, some treatment groups were sampled at 6, 24, and 48 hours post bacterial challenge for RNA sequence analysis of lung tissue.
The murine efficacy model (P. multocida challenge) was optimized, and the treatment group size was powered to be able to observe statistically significant improvement of survival to expected ranges for immunomodulatory compounds. The experimental design was a randomized complete block design. Mice were individually identified and treatment groups comingled within a cage, with every treatment group equally represented across cages. Mortality was the primary variable. Mortality data was analyzed using a generalized mixed model with fixed effect of treatment and random effect of block. Survival time was also analyzed using the SAS PHREG (survival analysis) procedure to examine whether there were significant differences between treatment groups and the control group. Numerous compounds of the invention and M9 (positive control) were tested in this model at a dose of 20 mg/kg (Table 3). Typical percent survival for no treatment control is in the range of 0-20% based on study to study variation in challenge inoculum and rate of infection. […] Mouse survival for M9 was about 90-100%, further supporting its residual antibacterial properties against the bacterial strain. Harmonized survival accounts for % survival relative to vehicle (“−” control) and M9 (“+” control)) survival data (Table 3).

A further experiment deals with IL-1β. Put plainly: Whole blood assay, LPS stimulation, MSD cytokine detection. Particulars: fresh whole bovine blood, LPS stimulation; drug concentration giving overstimulation (OS) of IL-1β. It is filed as cell-based, bovine.
For the next experiment, the system named is TNF-α. The experiment is described as above. It is filed as cell-based. The following applies: Bos taurus, fresh whole bovine blood.
Where [1] appears, read: harmonized survival relative to vehicle and M9, 20 mg/kg subcutaneous, Day 10.

Take `CCCNC[C@]1(O)[C@H](C)O[C@@H](O[C@H]2[C@H](C)[C@@H](O[C@@H]3O[C@H](C)C[C@H](N(C)C(=O)N(c4ccccc4)c4ccccc4)[C@H]3O)[C@](C)(O)C[C@@H](C)CN[C@H](C)[C@@H](O)[C@](C)(O)[C@@H](CC)OC(=O)[C@@H]2C)C[C@@]1(C)OC` [Example H-39]: the “% Survival” value with P. multocida 46572 (setting [1]) stood at 44%.

Regarding `CC[C@H]1OC(=O)[C@H](C)[C@@H](O)[C@H](C)[C@@H](O[C@@H]2O[C@H](C)C[C@H](N(C)C(=O)N(C)c3cc(C)n(C)n3)[C@H]2Oc2ccccc2)[C@](C)(O)C[C@@H](C)CN[C@H](C)[C@@H](O)[C@]1(C)O` [Example C-26, 1-(1,5-dimethyl-1H-pyrazol-3-yl)-3-((2S,3R,4S,6R)-2-(((2R,3S,4R,5R,8R,10R,11R,12S,13S,14R)-2-ethyl-3,4,10,13-tetrahydroxy-3,5,8,10,12,14-hexamethyl-15-oxo-1-oxa-6-azacyclopentadecan-11-yl)oxy)-6-methyl-3-phenoxytetrahydro-2H-pyran-4-yl)-1,3-dimethylurea], the “% Survival” value in the experiment on P. multocida 46572 (46572, sc, 20 mg/kg, 240 h) is reported as 8%.

Turning to `CCCNC[C@]1(O)[C@H](C)O[C@@H](O[C@H]2[C@H](C)[C@@H](O[C@@H]3O[C@H](C)C[C@H](N(C)C(=O)N(C)c4cc(C)n(C)n4)[C@H]3Oc3ccccc3)[C@](C)(O)C[C@@H](C)CN[C@H](C)[C@@H](O)[C@](C)(O)[C@@H](CC)OC(=O)[C@@H]2C)C[C@@]1(C)OC` [Example F-19, 1-(1,5-dimethyl-1H-pyrazol-3-yl)-3-((2S,3R,4S,6R)-2-(((2R,3S,4R,5R,8R,10R,11R,12S,13S,14R)-2-ethyl-3,4,10-trihydroxy-13-(((2R,4R,5S,6S)-5-hydroxy-4-methoxy-4,6-dimethyl-5-((propylamino)methyl)tetrahydro-2H-pyran-2-yl)oxy)-3,5,8,10,12,14-hexamethyl-15-oxo-1-oxa-6-azacyclopentadecan-11-yl)oxy)-6-methyl-3-phenoxytetrahydro-2H-pyran-4-yl)-1,3-dimethylurea], in the experiment on P. multocida 46572 (46572, sc, 20 mg/kg, 240 h), the “% Survival” value is listed as 35%.

By IC50 is commonly meant the concentration that inhibits the measured activity by half. In the case of `CCCNC[C@]1(O)[C@H](C)O[C@@H](O[C@H]2[C@H](C)[C@@H](O[C@@H]3O[C@H](C)C[C@H](NC)[C@H]3Oc3ncc(Cl)cn3)[C@](C)(O)C[C@@H](C)CN[C@H](C)[C@@H](O)[C@](C)(O)[C@@H](CC)OC(=O)[C@@H]2C)C[C@@]1(C)OC` [Example E-30, (2R,3S,4R,5R,8R,10R,11R,12S,13S,14R)-11-(((2S,3R,4S,6R)-3-((5-chloropyrimidin-2-yl)oxy)-6-methyl-4-(methylamino)tetrahydro-2H-pyran-2-yl)oxy)-2-ethyl-3,4,10-trihydroxy-13-(((2R,4R,5S,6S)-5-hydroxy-4-methoxy-4,6-dimethyl-5-((propylamino)methyl)tetrahydro-2H-pyran-2-yl)oxy)-3,5,8,10,12,14-hexamethyl-1-oxa-6-azacyclopentadecan-15-one], the “IL-1ß OS of LPS” value with IL-1β amounted to 13 µM. For the same molecule, in the experiment on P. multocida 46572 (46572, sc, 20 mg/kg, 240 h), the “% Survival” value is recorded as 22%. This molecule returned a concentration for half-maximal inhibition (IC50) in the experiment with TNF-α of 7 µM.

Turning to `CCCNC[C@]1(O)[C@H](C)O[C@@H](O[C@H]2[C@H](C)[C@@H](O[C@@H]3O[C@H](C)C[C@H](N(C)C(=O)N(C)c4ccccc4)[C@H]3O)[C@](C)(O)C[C@@H](C)CN[C@H](C)[C@@H](O)[C@](C)(O)[C@@H](CC)OC(=O)[C@@H]2C)C[C@@]1(C)OC` [Example H-11], the “% Survival” value in the experiment with P. multocida 46572 (setting [1]) is listed as 36%.

With `CC[C@H]1OC(=O)[C@H](C)[C@@H](O)[C@H](C)[C@@H](O[C@@H]2O[C@H](C)C[C@H](N(C)C(=O)N(C)c3ccccc3)[C@H]2Oc2ccccc2)[C@](C)(O)C[C@@H](C)CN(C)[C@H](C)[C@@H](O)[C@]1(C)O` [Example C-12, 1-((2S,3R,4S,6R)-2-(((2R,3S,4R,5R,8R,10R,11R,12S,13S,14R)-2-ethyl-3,4,10,13-tetrahydroxy-3,5,6,8,10,12,14-heptamethyl-15-oxo-1-oxa-6-azacyclopentadecan-11-yl)oxy)-6-methyl-3-phenoxytetrahydro-2H-pyran-4-yl)-1,3-dimethyl-3-phenylurea], the “% Survival” value with P. multocida 46572 (46572, sc, 20 mg/kg, 240 h) came to 12%.

As for `CC[C@H]1OC(=O)[C@H](C)[C@@H](O)[C@H](C)[C@@H](O[C@@H]2O[C@H](C)C[C@H](N(C)C(=O)N(C)c3cc(C)n(C)n3)[C@H]2Oc2ccccc2)[C@](C)(O)C[C@@H](C)CN(C)[C@H](C)[C@@H](O)[C@]1(C)O` [Example C-30, 1-(1,5-dimethyl-1H-pyrazol-3-yl)-3-((2S,3R,4S,6R)-2-(((2R,3S,4R,5R,8R,10R,11R,12S,13S,14R)-2-ethyl-3,4,10,13-tetrahydroxy-3,5,6,8,10,12,14-heptamethyl-15-oxo-1-oxa-6-azacyclopentadecan-11-yl)oxy)-6-methyl-3-phenoxytetrahydro-2H-pyran-4-yl)-1,3-dimethylurea], the “% Survival” value in the experiment with P. multocida 46572 (46572, sc, 20 mg/kg, 240 h) came out at 0%.

`CCCNC[C@]1(O)[C@H](C)O[C@@H](O[C@H]2[C@H](C)[C@@H](O[C@@H]3O[C@H](C)C[C@H](N(Cc4nccs4)C(=O)N(C)c4ccccc4)[C@H]3O)[C@](C)(O)C[C@@H](C)CN[C@H](C)[C@@H](O)[C@](C)(O)[C@@H](CC)OC(=O)[C@@H]2C)C[C@@]1(C)OC` [Example H-64]: the “% Survival” value in the experiment on P. multocida 46572 (setting [1]) was found to be 0%.

For `CC[C@H]1OC(=O)[C@H](C)[C@@H](O[C@H]2C[C@@](C)(OC)[C@@H](O)[C@H](C)O2)[C@H](C)[C@@H](O[C@@H]2O[C@H](C)C[C@H](NC)[C@H]2Oc2ccccc2)[C@](C)(O)C[C@@H](C)CN(C)[C@H](C)[C@@H](O)[C@]1(C)O` [Example A-26, (2R,3S,4R,5R,8R,10R,11R,12S,13S,14R)-2-ethyl-3,4,10-trihydroxy-13-(((2R,4R,5S,6S)-5-hydroxy-4-methoxy-4,6-dimethyltetrahydro-2H-pyran-2-yl)oxy)-3,5,6,8,10,12,14-heptamethyl-11-(((2S,3R,4S,6R)-6-methyl-4-(methylamino)-3-phenoxytetrahydro-2H-pyran-2-yl)oxy)-1-oxa-6-azacyclopentadecan-15-one], in the experiment on IL-1β, the “IL-1ß OS of LPS” value came out at 16 µM. Further, the “% Survival” value with P. multocida 46572 (46572, sc, 20 mg/kg, 240 h) is reported as 1%. Besides, in the experiment with TNF-α, the half-inhibitory concentration (IC50) was found to be 20 µM.

`CC[C@H]1OC(=O)[C@H](C)[C@@H](O[C@H]2C[C@@](C)(OC)[C@](O)(CN3CCOCC3)[C@H](C)O2)[C@H](C)[C@@H](O[C@@H]2O[C@H](C)C[C@H](N(C)C)[C@H]2Oc2ccccc2)[C@](C)(O)C[C@@H](C)CN[C@H](C)[C@@H](O)[C@]1(C)O` [Example H-3, (2R,3S,4R,5R,8R,10R,11R,12S,13S,14R)-11-(((2S,3R,4S,6R)-4-(dimethylamino)-6-methyl-3-phenoxytetrahydro-2H-pyran-2-yl)oxy)-2-ethyl-3,4,10-trihydroxy-13-(((2R,4R,5S,6S)-5-hydroxy-4-methoxy-4,6-dimethyl-5-(morpholinomethyl)tetrahydro-2H-pyran-2-yl)oxy)-3,5,8,10,12,14-hexamethyl-1-oxa-6-azacyclopentadecan-15-one]: in the experiment on P. multocida 46572 (46572, sc, 20 mg/kg, 240 h), the “% Survival” value was determined as 8%.

Turning to `CCCNC[C@]1(O)[C@H](C)O[C@@H](O[C@H]2[C@H](C)[C@@H](O[C@@H]3O[C@H](C)C[C@H](N(C)C)[C@H]3Oc3ccccc3)[C@](C)(O)C[C@@H](C)CN[C@H](C)[C@@H](O)[C@](C)(O)[C@@H](CC)OC(=O)[C@@H]2C)C[C@@]1(C)OC` [Example E-3, (2R,3S,4R,5R,8R,10R,11R,12S,13S,14R)-11-(((2S,3R,4S,6R)-4-(dimethylamino)-6-methyl-3-phenoxytetrahydro-2H-pyran-2-yl)oxy)-2-ethyl-3,4,10-trihydroxy-13-(((2R,4R,5S,6S)-5-hydroxy-4-methoxy-4,6-dimethyl-5-((propylamino)methyl)tetrahydro-2H-pyran-2-yl)oxy)-3,5,8,10,12,14-hexamethyl-1-oxa-6-azacyclopentadecan-15-one], the “IL-1ß OS of LPS” value with IL-1β turned out to be 13 µM. In addition, the “% Survival” value in the experiment with P. multocida 46572 (46572, sc, 20 mg/kg, 240 h) came out at 37%. For the same molecule, the IC50 in the experiment with TNF-α amounted to 8 µM.

Turning to `CCCNC[C@]1(O)[C@H](C)O[C@@H](O[C@H]2[C@H](C)[C@@H](O[C@@H]3O[C@H](C)C[C@H](N(C)C(=O)N(C)c4ccc(C(F)(F)F)cc4)[C@H]3O)[C@](C)(O)C[C@@H](C)CN[C@H](C)[C@@H](O)[C@](C)(O)[C@@H](CC)OC(=O)[C@@H]2C)C[C@@]1(C)OC` [Example H-13], the “% Survival” value with P. multocida 46572 (setting [1]) was determined as 59%.
